According to ChEMBL document CHEMBL1201862, “PubChem BioAssay data set” (2004):
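In this assay, cells in 96-well plates receive the compound at five concentrations for 48 hours. Endpoints are linearly interpolated between the surrounding concentrations. The concentration for 50% growth inhibition is given as GI50.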 Activity calls are given as the source filed them. No stated cut-off is given here; in the data, active = GI50 up to about 1.1 µM and inactive = higher.

How the values were obtained:
Test in all cases: NCI tumour cell line growth inhibition, 48 h
[1] = test system: SNB-19
[2] = test system: RPMI-8226
[3] = test system: HOP-62
[4] = test system: U-251
[5] = test system: SR
[6] = test system: EKVX
[7] = test system: OVCAR-3
[8] = test system: MDA-MB-435
[9] = test system: NCI-H460
[10] = test system: HCT-116
[11] = test system: BT-549
[12] = test system: COLO 205
[13] = test system: SN12C
[14] = test system: SK-MEL-28
[15] = test system: OVCAR-4
[16] = test system: IGROV-1
[17] = test system: KM12
[18] = test system: HL-60
[19] = test system: Hs-578T
[20] = test system: MOLT-4
[21] = test system: A549
[22] = test system: K562
[23] = test system: SK-OV-3
[24] = test system: UACC-62
[25] = test system: SF-539
[26] = test system: MDA-MB-231
[27] = test system: Malme-3M
[28] = test system: NCI-H226
[29] = test system: MDA-N
[30] = test system: T47D
[31] = test system: SF-268
[32] = test system: TK-10
[33] = test system: 786-0
[34] = test system: UO-31
[35] = test system: CCRF-CEM
[36] = test system: ACHN
[37] = test system: SNB-75
[38] = test system: OVCAR-5
[39] = test system: LOX IMVI
[40] = test system: HCC 2998
[41] = test system: UACC-257
[42] = test system: A498
[43] = test system: SW-620
[44] = test system: MCF7
[45] = test system: SF-295
[46] = test system: NCI-H23
[47] = test system: HCT-15
[48] = test system: PC-3
[49] = test system: M14
[50] = test system: SK-MEL-5
[51] = test system: NCI/ADR-RES
[52] = test system: SK-MEL-2
[53] = test system: HT-29

Compound: COC(=O)/C=C/c1cnc2c(c1)oc(=O)n2CCc1ccccn1
- GI50 [1]: > 100 µM (inactive)
- GI50 [2]: > 100 µM (inactive)
- GI50 [3]: > 100 µM (inactive)
- GI50 [4]: > 100 µM (inactive)
- GI50 [5]: 30.8 µM (inactive)
- GI50 [6]: > 100 µM (inactive)
- GI50 [7]: > 100 µM (inactive)
- GI50 [8]: 20.8 µM (inactive)
- GI50 [9]: > 100 µM (inactive)
- GI50 [10]: > 100 µM (inactive)
- GI50 [11]: 42.8 µM (inactive)
- GI50 [12]: > 100 µM (inactive)
- GI50 [13]: > 100 µM (inactive)
- GI50 [14]: > 100 µM (inactive)
- GI50 [15]: > 100 µM (inactive)
- GI50 [16]: > 100 µM (inactive)
- GI50 [17]: > 100 µM (inactive)
- GI50 [18]: 1.35 µM (inactive)
- GI50 [19]: > 100 µM (inactive)
- GI50 [20]: > 100 µM (inactive)
- GI50 [21]: > 100 µM (inactive)
- GI50 [22]: 73.3 µM (inactive)
- GI50 [23]: > 100 µM (inactive)
- GI50 [24]: > 100 µM (inactive)
- GI50 [25]: > 100 µM (inactive)
- GI50 [26]: > 100 µM (inactive)
- GI50 [27]: > 100 µM (inactive)
- GI50 [28]: 17.2 µM (inactive)
- GI50 [29]: 23.8 µM (inactive)
- GI50 [30]: 50.6 µM (inactive)
- GI50 [31]: > 100 µM (inactive)
- GI50 [32]: > 100 µM (inactive)
- GI50 [33]: > 100 µM (inactive)
- GI50 [34]: > 100 µM (inactive)
- GI50 [35]: 31.6 µM (inactive)
- GI50 [36]: > 100 µM (inactive)
- GI50 [37]: > 100 µM (inactive)
- GI50 [38]: > 100 µM (inactive)
- GI50 [39]: > 100 µM (inactive)
- GI50 [40]: > 100 µM (inactive)
- GI50 [41]: > 100 µM (inactive)
- GI50 [42]: 0.773 µM (active)
- GI50 [43]: 92 µM (inactive)
- GI50 [44]: > 100 µM (inactive)
- GI50 [45]: > 100 µM (inactive)
- GI50 [46]: > 100 µM (inactive)
- GI50 [47]: > 100 µM
- GI50 [48]: 90.2 µM (inactive)
- GI50 [49]: > 100 µM (inactive)
- GI50 [50]: 59.6 µM (inactive)
- GI50 [51]: 40.1 µM (inactive)
- GI50 [52]: > 100 µM (inactive)
- GI50 [53]: > 100 µM (inactive)
